The values that follow come from PMC4278187 (The Journal of General Physiology, 2015).

For experiment [1], the target named is T1, ELIC (Erwinia chrysanthemi ligand-gated ion channel) (Dickeya chrysanthemi, UniProt P0C7B7).
T1 sequence (P0C7B7 1-321): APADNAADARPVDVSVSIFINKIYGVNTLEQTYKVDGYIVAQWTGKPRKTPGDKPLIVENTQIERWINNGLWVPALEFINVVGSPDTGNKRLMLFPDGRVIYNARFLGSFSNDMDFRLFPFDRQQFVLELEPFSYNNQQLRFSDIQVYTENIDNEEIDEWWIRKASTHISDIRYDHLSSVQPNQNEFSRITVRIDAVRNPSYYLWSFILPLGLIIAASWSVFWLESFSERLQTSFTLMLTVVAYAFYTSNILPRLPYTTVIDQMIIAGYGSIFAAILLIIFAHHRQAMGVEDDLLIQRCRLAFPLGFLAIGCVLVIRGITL
Nature of the experiment: macroscopic patch-clamp currents. Format: cell-based.

Experiment [2] concerns the target T1, ELIC (Erwinia chrysanthemi ligand-gated ion channel). Nature of the experiment: whole-cell patch clamp concentration-response in HEK293 cells. Format: cell-based.

Take `NCCS` [cysteamine]: the “macroscopic patch-clamp currents (data not shown)” value in experiment [1] is on record as “in our macroscopic records, the rebound current (see below) was more prominent when responses were elicited by cysteamine”.
`CCCN` [propylamine] gave an EC50 in experiment [2] of 500 ± 100 µM.
